Patent US20100322887A1, “HAIR NOURISHING COSMETIC” (SHOWA DENKO K.K., priority 2008, published 2010)

Experiments:
Solubility in water = conditions: normal temperature
male C3H/HeN Sic mice = experiment: Hair regrowth promotion test using mouse; format: in vivo; conditions: after 20 days
Procedure: 15 male C3H/HeN Sic 7-week old mice in the resting stage of the hair cycle had their hair at the back part shorn off carefully with an electric hair clipper and an electric shaver. These mice were divided into three groups each containing 5 mice. To the skin of the shorn part of each mouse in one group, 0.1 ml of a test sample shown in the following Table 4 was applied once a day, and to the skin of the shorn part of each mouse in another group, a base was applied in the same amount. The residual group in which nothing had been applied was regarded as an untreated control.
After 20 days from the beginning of the experiments, the back part of each mouse was photographed. By the use of an image analyzing software (Image-J), a ratio of the area where the hair had regrown to the whole area of the hair shorn part was calculated, and the resulting ratio was regarded as a hair regrowth ratio. The hair regrowth ratio of each mouse was calculated, and statistical analysis of the hair regrowth ratio of each group was carried out. The results are shown in FIG. 1 and the following Table 5.

Row | Compound | solubility in water (Solubility in water) | Hair regrowth ratio (%) Average (male C3H/HeN Sic mice; 0.1 ml once a day on shorn back skin, in Macrogol 400:Macrogol 4000 = 9:1 base, n=5) | hair regrowth ratio (in words) (male C3H/HeN Sic mice; test sample group)
1 | COC1=C(OC)C(=O)C(C/C=C(\C)CC/C=C(\C)CC/C=C(\C)CC/C=C(\C)CC/C=C(\C)CC/C=C(\C)CC/C=C(\C)CC/C=C(\C)CC/C=C(\C)CCC=C(C)C)=C(C)C1=O [ubiquinone] | less than 100 ppm |  | 
2 | tetrapotassium ubiquinol-1,4-diphosphate |  | 58.45% | tendency of enhancement
